In ChEMBL document CHEMBL1146289, “1,5-Biaryl pyrrole derivatives as EP1 receptor antagonists: Structure-activity relationships of 4- and 5-substituted benzoic acid derivatives” (Bioorg Med Chem Lett, 2007):

Assays:
[1] = target: T1, Prostaglandin E2 receptor EP1 subtype (Homo sapiens, UniProt P34995); test: Displacement of [3H]PGE2 from human recombinant EP1 receptor expressed in CHO cell membranes
T1 sequence (P34995 whole entry): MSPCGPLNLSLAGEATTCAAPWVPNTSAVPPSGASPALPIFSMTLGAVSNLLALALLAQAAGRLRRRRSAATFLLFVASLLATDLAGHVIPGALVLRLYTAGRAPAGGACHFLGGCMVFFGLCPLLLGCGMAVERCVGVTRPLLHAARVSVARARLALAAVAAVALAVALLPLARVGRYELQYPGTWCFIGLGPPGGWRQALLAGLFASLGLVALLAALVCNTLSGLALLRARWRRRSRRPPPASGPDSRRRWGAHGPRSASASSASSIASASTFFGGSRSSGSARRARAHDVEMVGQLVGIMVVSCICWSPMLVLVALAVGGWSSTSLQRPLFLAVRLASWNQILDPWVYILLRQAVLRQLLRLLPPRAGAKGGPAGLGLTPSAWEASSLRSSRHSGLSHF

[2] = Tmax in rat at 3 mg/kg, po; assay type: ADME, organism-based; set-up: dose 3 mg/kg, route oral; settings: in vivo
[3] = Cmax in rat at 3 mg/kg, po; assay type: ADME, organism-based; set-up: dose 3 mg/kg, route oral; settings: in vivo
Rattus norvegicus [4] = test: AUC (0-t) in rat at 3 mg/kg, po; assay type: ADME, organism-based, Plasma; set-up: dose 3 mg/kg, route oral; settings: in vivo
Rattus norvegicus [5] = test: Reversal of hypersensitivity in rat FCA model of inflammatory pain at 5 mg/kg, po; assay type: functional
Rattus norvegicus [6] = species: Rattus norvegicus; test: Reversal of hypersensitivity in rat FCA model of inflammatory pain; assay type: functional
Cytochrome P450 1A2 = target: T2, Cytochrome P450 1A2 (Homo sapiens, UniProt P05177); test: Inhibition of CYP1A2; assay type: ADME
T2 sequence (P05177 whole entry): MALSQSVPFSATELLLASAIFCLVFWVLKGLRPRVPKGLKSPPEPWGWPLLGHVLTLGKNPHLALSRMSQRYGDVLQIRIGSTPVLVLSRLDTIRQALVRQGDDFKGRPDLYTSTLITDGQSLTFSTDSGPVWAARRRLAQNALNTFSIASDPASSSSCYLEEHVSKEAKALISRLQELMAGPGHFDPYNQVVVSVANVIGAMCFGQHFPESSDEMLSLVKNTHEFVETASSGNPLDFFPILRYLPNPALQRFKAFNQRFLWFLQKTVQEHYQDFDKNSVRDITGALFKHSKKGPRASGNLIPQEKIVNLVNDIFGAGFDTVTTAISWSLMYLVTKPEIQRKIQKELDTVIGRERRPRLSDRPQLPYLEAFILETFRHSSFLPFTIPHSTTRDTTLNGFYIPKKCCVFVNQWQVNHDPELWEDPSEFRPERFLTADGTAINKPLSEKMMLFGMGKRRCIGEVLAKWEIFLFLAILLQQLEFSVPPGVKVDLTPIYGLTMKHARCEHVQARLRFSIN

Cytochrome P450 2C9 = Cytochrome P450 2C9 (Homo sapiens, UniProt P11712); test: Inhibition of CYP2C9; assay type: ADME
Sequence of Cytochrome P450 2C9 (P11712 whole entry): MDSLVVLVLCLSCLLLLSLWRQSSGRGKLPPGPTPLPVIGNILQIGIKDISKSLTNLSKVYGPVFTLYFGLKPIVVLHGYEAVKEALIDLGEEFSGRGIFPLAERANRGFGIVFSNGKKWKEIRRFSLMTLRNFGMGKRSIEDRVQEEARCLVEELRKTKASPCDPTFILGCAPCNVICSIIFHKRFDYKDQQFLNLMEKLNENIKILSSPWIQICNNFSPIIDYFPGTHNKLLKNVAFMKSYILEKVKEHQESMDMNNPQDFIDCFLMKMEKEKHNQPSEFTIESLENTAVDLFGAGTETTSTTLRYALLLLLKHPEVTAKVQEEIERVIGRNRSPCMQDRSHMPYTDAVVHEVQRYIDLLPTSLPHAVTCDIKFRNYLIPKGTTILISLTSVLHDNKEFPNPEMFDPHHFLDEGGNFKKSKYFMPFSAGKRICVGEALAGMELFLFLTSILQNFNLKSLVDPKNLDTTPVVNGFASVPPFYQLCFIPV

Cytochrome P450 2C19 = Cytochrome P450 2C19 (Homo sapiens, UniProt P33261); test: Inhibition of CYP2C19; assay type: ADME
Sequence of Cytochrome P450 2C19 (P33261 whole entry): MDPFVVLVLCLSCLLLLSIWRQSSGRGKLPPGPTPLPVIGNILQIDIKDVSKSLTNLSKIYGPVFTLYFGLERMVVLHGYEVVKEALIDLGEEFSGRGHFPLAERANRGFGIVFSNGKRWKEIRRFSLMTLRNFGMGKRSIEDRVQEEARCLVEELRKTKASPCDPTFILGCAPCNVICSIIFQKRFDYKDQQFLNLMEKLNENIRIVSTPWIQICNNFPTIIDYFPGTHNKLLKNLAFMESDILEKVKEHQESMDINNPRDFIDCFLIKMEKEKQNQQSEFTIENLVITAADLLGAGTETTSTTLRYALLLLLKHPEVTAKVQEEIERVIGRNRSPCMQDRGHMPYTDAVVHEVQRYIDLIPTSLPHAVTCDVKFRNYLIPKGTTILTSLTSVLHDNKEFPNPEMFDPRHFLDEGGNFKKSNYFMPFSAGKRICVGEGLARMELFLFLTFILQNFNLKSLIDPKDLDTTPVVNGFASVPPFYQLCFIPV

[7] = target: Prostaglandin E2 receptor EP4 subtype (Homo sapiens, UniProt P35408); test: Inhibition of EP4 receptor
Sequence of Prostaglandin E2 receptor EP4 subtype (P35408 whole entry): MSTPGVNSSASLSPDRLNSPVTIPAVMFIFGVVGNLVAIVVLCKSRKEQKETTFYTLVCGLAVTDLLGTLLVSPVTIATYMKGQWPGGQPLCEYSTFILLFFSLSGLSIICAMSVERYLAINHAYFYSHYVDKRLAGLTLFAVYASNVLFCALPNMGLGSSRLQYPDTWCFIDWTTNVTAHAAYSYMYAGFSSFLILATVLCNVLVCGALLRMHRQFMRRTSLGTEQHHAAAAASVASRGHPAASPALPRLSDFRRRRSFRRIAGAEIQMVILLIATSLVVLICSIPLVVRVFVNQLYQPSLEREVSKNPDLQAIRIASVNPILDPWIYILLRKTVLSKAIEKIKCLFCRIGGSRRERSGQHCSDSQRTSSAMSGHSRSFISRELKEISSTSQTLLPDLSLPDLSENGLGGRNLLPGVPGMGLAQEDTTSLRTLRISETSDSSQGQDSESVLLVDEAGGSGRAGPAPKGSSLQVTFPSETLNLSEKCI

Cytochrome P450 2D6 = Cytochrome P450 2D6 (Homo sapiens, UniProt P10635); test: Inhibition of CYP2D6; assay type: ADME
Sequence of Cytochrome P450 2D6 (P10635 whole entry): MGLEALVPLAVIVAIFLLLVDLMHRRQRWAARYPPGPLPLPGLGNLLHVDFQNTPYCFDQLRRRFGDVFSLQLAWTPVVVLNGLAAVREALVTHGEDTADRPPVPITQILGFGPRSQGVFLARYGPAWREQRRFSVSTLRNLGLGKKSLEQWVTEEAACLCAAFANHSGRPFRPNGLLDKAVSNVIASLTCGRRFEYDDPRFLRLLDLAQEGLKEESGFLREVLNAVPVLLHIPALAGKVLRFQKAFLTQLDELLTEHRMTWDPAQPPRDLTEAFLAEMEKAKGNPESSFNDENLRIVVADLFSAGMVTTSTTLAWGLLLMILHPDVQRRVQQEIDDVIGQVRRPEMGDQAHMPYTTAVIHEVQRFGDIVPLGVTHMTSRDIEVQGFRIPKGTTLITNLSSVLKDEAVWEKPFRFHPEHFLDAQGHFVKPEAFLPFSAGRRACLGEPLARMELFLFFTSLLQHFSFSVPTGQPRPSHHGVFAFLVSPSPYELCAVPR

Cytochrome P450 3A4 = Cytochrome P450 3A4 (Homo sapiens, UniProt P08684); test: Inhibition of CYP3A4; assay type: ADME
Sequence of Cytochrome P450 3A4 (P08684 whole entry): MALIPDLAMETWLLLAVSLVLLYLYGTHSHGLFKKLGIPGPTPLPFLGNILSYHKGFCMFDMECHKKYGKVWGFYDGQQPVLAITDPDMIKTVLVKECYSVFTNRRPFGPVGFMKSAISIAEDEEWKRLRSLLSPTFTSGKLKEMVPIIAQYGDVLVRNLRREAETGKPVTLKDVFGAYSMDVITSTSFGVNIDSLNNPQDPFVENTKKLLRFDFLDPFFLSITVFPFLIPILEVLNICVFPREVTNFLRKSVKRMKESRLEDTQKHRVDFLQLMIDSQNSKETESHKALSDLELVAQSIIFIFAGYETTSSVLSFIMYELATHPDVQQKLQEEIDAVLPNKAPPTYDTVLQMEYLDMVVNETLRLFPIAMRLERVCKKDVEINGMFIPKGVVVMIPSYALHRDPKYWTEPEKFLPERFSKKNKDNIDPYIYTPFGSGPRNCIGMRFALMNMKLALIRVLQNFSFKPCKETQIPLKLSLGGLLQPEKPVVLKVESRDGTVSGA

[8] = target: T1, Prostaglandin E2 receptor EP1 subtype; test: Inhibition of EP1 receptor expressed in CHO cells assessed as calcium mobilization by FLIPR assay; assay type: functional, cell-based
[9] = target: T3, Prostaglandin E2 receptor EP3 subtype (Homo sapiens, UniProt P43115); test: Inhibition of EP3 receptor expressed in CHO cells assessed as calcium mobilization by FLIPR assay; assay type: functional, cell-based
T3 sequence (P43115 whole entry): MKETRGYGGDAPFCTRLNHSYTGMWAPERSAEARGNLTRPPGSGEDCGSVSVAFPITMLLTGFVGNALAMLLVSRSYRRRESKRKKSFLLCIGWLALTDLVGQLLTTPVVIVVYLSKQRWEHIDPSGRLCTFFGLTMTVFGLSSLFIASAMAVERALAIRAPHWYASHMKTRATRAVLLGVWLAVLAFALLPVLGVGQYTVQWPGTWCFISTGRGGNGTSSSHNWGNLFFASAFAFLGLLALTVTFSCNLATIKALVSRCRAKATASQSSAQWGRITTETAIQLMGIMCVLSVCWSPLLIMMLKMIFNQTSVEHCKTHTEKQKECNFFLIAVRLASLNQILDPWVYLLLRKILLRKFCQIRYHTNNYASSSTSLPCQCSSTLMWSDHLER

Thromboxane A2 receptor = target: T4, Thromboxane A2 receptor (Homo sapiens, UniProt P21731); test: Inhibition of TP receptor
T4 sequence (P21731 whole entry): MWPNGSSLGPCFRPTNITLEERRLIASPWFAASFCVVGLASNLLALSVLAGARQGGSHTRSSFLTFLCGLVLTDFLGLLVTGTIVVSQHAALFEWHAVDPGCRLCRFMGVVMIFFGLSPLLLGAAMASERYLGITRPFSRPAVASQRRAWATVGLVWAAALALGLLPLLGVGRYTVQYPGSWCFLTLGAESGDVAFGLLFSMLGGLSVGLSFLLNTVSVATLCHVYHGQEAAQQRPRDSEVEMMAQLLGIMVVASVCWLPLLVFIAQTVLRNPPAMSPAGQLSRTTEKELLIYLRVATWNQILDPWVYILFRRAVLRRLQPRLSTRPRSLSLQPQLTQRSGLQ

[10] = target: T5, Thromboxane A2 receptor (Homo sapiens) (UniProt P21731)
T5 sequence (whole entry): T4 sequence (P21731 whole entry)

## CC(=O)N(C)c1cc(C(=O)O)cc(-n2c(C)ccc2-c2cc(Br)ccc2OCc2ccc(F)cc2F)c1
[1]
  IC50: 1.26 nM

## CC(=O)Nc1cc(C(=O)O)cc(-n2c(C)ccc2-c2cc(C(F)(F)F)ccc2OCc2ccccc2)c1
[1]
  IC50: 1.26 nM
[2]
  Tmax: 42 min
[3]
  Cmax: 20 nM

## Cc1ccc(-c2cc(Cl)ccc2OCc2ccccc2)n1-c1cc(N)cc(C(=O)O)c1
[1]
  IC50: 3.98 nM

## Cc1ccc(-c2cc(Br)ccc2OCc2ccc(F)cc2F)n1-c1cc(C(=O)O)cc(C(F)(F)F)c1
[1]
  IC50: 12.6 nM

## Cc1ccc(-c2cc(Cl)ccc2OCc2ccc(F)cc2F)n1-c1cc(Cl)cc(C(=O)O)c1
[1]
  IC50: 3.98 nM

## Cc1ccc(-c2cc(Cl)ccc2OCc2ccc(F)cc2F)n1-c1cc(C(=O)O)ccc1F
[1]
  IC50: 6.31 nM
Rattus norvegicus [4]
  AUC: 4 kg·min/L
[2]
  Tmax: 30 min
[3]
  Cmax: 230 nM

## Cc1ccc(-c2cc(Br)ccc2OCc2ccc(F)cc2F)n1-c1cc(C(=O)O)cc(N2CCCC2=O)c1
[1]
  IC50: 2 nM

## Cc1ccc(-c2cc(Cl)ccc2OCc2ccc(F)cc2)n1-c1cc(C(=O)O)ccc1Cl
[1]
  IC50: 316 nM

## Cc1ccc(-c2cc(C(F)(F)F)ccc2OCc2ccc(F)cc2)n1-c1cc(C(=O)O)cc(N2CCCS2(=O)=O)c1
[1]
  IC50: 7.94 nM

## Cc1ccc(-c2cc(Br)ccc2OCc2ccccc2)n1-c1cc(N)cc(C(=O)O)c1
[1]
  IC50: 3.16 nM

## Cc1ccc(-c2cc(Br)ccc2OCc2ccc(F)cc2F)n1-c1cc(Cl)cc(C(=O)O)c1
[1]
  IC50: 3.98 nM

## CC(=O)Nc1cc(C(=O)O)cc(-n2c(C)ccc2-c2cc(F)ccc2OCc2ccc(F)cc2)c1
[1]
  IC50: 3.98 nM
Rattus norvegicus [4]
  AUC: 60 kg·min/L
[2]
  Tmax: 30 min
[3]
  Cmax: 2950 nM
Rattus norvegicus [5]
  Activity: 55%

## Cc1ccc(-c2cc(Cl)ccc2OCc2ccc(F)cc2F)n1-c1cc(C(=O)O)cc(C(F)(F)F)c1
[1]
  IC50: 10 nM

## CCOc1ccc(C(=O)O)cc1-n1c(C)ccc1-c1cc(Cl)ccc1OCc1ccccc1
[1]
  IC50: 126 nM

## CC(=O)Nc1cc(C(=O)O)cc(-n2c(C)ccc2-c2cc(Br)ccc2OCc2ccc(F)cc2)c1
[1]
  IC50: 0.794 nM

## Cc1ccc(-c2cc(Cl)ccc2OCc2ccccc2)n1-c1cc(C(=O)O)cc(N2CCCS2(=O)=O)c1
[1]
  IC50: 5.01 nM

## CC(=O)Nc1cc(C(=O)O)cc(-n2c(C)ccc2-c2cc(I)ccc2OCc2ccc(F)cc2F)c1
[1]
  IC50: 1.58 nM

## COC(=O)Nc1cc(C(=O)O)cc(-n2c(C)ccc2-c2cc(Cl)ccc2OCc2ccccc2)c1
[1]
  IC50: 5.01 nM

## Cc1ccc(-c2cc(Br)ccc2OCc2ccc(F)cc2)n1-c1cc(C(=O)O)ccc1F
[1]
  IC50: 6.31 nM
Rattus norvegicus [4]
  AUC: 6 kg·min/L
[2]
  Tmax: 30 min
[3]
  Cmax: 230 nM

## Cc1ccc(-c2cc(Cl)ccc2OCc2ccc(F)cc2F)n1-c1cc(C(=O)O)ccc1Cl
[1]
  IC50: 158 nM

## CC(=O)Nc1cc(C(=O)O)cc(-n2c(C)ccc2-c2cc(Cl)ccc2OCc2ccccc2)c1
[1]
  IC50: 2 nM
Rattus norvegicus [4]
  AUC: 8 kg·min/L
[2]
  Tmax: 30 min
[3]
  Cmax: 580 nM

## COc1ccc(C(=O)O)cc1-n1c(C)ccc1-c1cc(Cl)ccc1OCc1ccccc1
[1]
  IC50: 251 nM

## CC(=O)Nc1cc(C(=O)O)cc(-n2c(C)ccc2-c2cc(Br)ccc2OCc2ccccc2)c1
[1]
  IC50: 1.26 nM

## CC(=O)Nc1cc(C(=O)O)cc(-n2c(C)ccc2-c2cc(Cl)ccc2OCc2ccc(F)cc2)c1
[1]
  IC50: 2.51 nM
Rattus norvegicus [4]
  AUC: 20 kg·min/L
[2]
  Tmax: 30 min
[3]
  Cmax: 2080 nM
Rattus norvegicus [5]
  Activity: 94%

## Cc1ccc(-c2cc(C(F)(F)F)ccc2OCc2ccccc2)n1-c1cc(C(=O)O)ccc1F
[1]
  IC50: 6.31 nM

## Cc1ccc(-c2cc(Br)ccc2OCc2ccc(F)cc2F)n1-c1cc(C(=O)O)cc(N2CCCCC2=O)c1
[1]
  IC50: 1.26 nM

## Cc1ccc(-c2cc(Cl)ccc2OCc2ccc(F)cc2)n1-c1cc(NS(C)(=O)=O)cc(C(=O)O)c1
[1]
  IC50: 1.58 nM

## Cc1ccc(-c2cc(Cl)ccc2OCc2ccccc2)n1-c1cc(Br)cc(C(=O)O)c1
[1]
  IC50: 5.01 nM
Rattus norvegicus [4]
  AUC: 6 kg·min/L
[2]
  Tmax: 30 min
[3]
  Cmax: 310 nM

## Cc1ccc(-c2cc(Cl)ccc2OCc2ccc(F)cc2F)n1-c1cc(Br)cc(C(=O)O)c1
[1]
  IC50: 5.01 nM

## CC(=O)Nc1cc(C(=O)O)cc(-n2c(C)ccc2-c2cc(Br)ccc2OCc2ccc(F)cc2F)c1
[1]
  IC50: 0.398 nM
Rattus norvegicus [4]
  AUC: 21 kg·min/L
[2]
  Tmax: 30 min
[3]
  Cmax: 1410 nM
Rattus norvegicus [5]
  Activity: 72%
Rattus norvegicus [6]
  ED50: 1.1 mg/kg
Cytochrome P450 1A2
  IC50: ≥ 18000 nM
Cytochrome P450 2C9
  IC50: ≥ 18000 nM
Cytochrome P450 2C19
  IC50: ≥ 18000 nM
[7]
  IC50: 158 nM
Cytochrome P450 2D6
  IC50: ≥ 18000 nM
Cytochrome P450 3A4
  IC50: ≥ 18000 nM
[8]
  Ki: 0.1 nM
[9]
  Ki: 501 nM
Thromboxane A2 receptor
  IC50: 2.51 nM
[10]
  pKb: 9

## Cc1ccc(-c2cc(Br)ccc2OCc2ccc(F)cc2F)n1-c1cc(N)cc(C(=O)O)c1
[1]
  IC50: 0.501 nM
Rattus norvegicus [4]
  AUC: < 1 kg·min/L
[2]
  Tmax: 30 min
[3]
  Cmax: 50 nM
